The record followed here is patent US11166942B2 (PRAXIS BIOTECH LLC, priority 2018, dated 2021).

Read-outs that look alike come from different tables or passages of the source. A value given as a limit tells only on which side of the number the result lay.

For one experiment, the system named is ATF4. Briefly: ATF4 expression inhibition assay (ATF4 5'UTR luciferase reporter, Tg-stressed HEK293T cells). It counts as cell-based, human. To be noted: Homo sapiens, HEK-293T, 3 h; for inhibition at 0.1 µM: read-out: % ATF4 inhibition at 100 nM; for IC50: read-out: ATF4 inhbition IC50; for inhibition at 1 µM: read-out: % ATF4 inhibition at 1 μM. The method, boiled down:
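HEK293T stably expressing luciferase fused downstream of human full-length ATF4 5′UTR, stressed with 100 nM thapsigargin plus compound (100 nM or 1 μM; IC50 series 0.1 nM to 1 μM) for 3 h at 37° C. Luminescence normalized to Tg alone (0%) and untreated cells (100% inhibition).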
Background: A reporter such as luciferase makes a cellular process visible.

The subject of experiment [1] is Chinese hamster ovary (CHO) cells. Briefly: Protein translation assay (puromycin labelling, CHO cells). To be noted: media alone = 100%; for activity at 1 µM: Cricetulus griseus, CHO. It counts as cell-based. The method, boiled down:
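CHO cells given compound 2 h at 1 μM (unstressed), or 1 h at 100 nM or 1 μM then co-treated with 300 nM Tg (stressed); 10 μg/ml puromycin pulse 30 min, anti-puromycin western blot with β-actin, densitometry. Normalized to media alone (100%) and, for stressed cells, Tg alone (0%).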

In another experiment the test system is HEK293T cells. Briefly: Recovery of protein translation in stressed HEK293T cells. The format is cell-based, human. To be noted: 1 μM (FIG. 4). The source says: Despite the great potency on the inhibition of ATF4 expression, ISRIB is not able to completely restore protein synthesis when the global protein translation is decreased under these stress conditions. […] Compound 4 has a great potency for the inhibition of ATF4 expression under stress condition (FIG. 3) and is much better at restoring global protein translation under ER stress-mediated repression and going beyond a 100% recovery (FIG. 4).

Setting [2] is: 100 nM test compound, 100 nM thapsigargin, 3 hours, HEK293T ATF4 luciferase reporter.
Setting [3] is: 100 nM thapsigargin, 3 hours, HEK293T ATF4 luciferase reporter.
[4] abbreviates: 1 μM test compound, 100 nM thapsigargin, 3 hours, HEK293T ATF4 luciferase reporter.
[5] abbreviates: 2 h, unstressed CHO cells, 1 μM, 2 hours, read-out: % Protein synthesis in unstressed cells (1 μM test compound).
Where [6] appears, read: CHO cells stressed with 300 nM Tg, 1 μM compound, Tg alone = 0%, read-out: % Recovery of protein expression (1 μM test compound).

As a reminder, the inhibition is how much of the control response was suppressed. The term IC50 denotes the point on the concentration scale where inhibition reaches its midpoint.

Regarding `O=C(COc1ccc(Cl)c(F)c1)NC1CCN(NC(=O)COc2ccc(Cl)c(F)c2)CC1` [Compound 4, N,N′-(piperidine-1,4-diyl)bis(2-(4-chloro-3-fluorophenoxy)acetamide)], the inhibition at 0.1 µM in the experiment with ATF4 (setting [2]) came to 93.2%. The concentration for half-maximal inhibition (IC50) with ATF4 (setting [3]) was determined as 3.1 nM. Also, in the experiment on ATF4 (setting [4]), the inhibition at 1 µM was 94.7%. Also, in experiment [1] (CHO cells stressed with 300 nM Tg, 100 nM compound, Tg alone = 0%), the “% Recovery of protein expression (100 nM test compound)” value is recorded as 83.5%. Also, the activity at 1 µM in experiment [1] (setting [5]) is 105%; in experiment [1] (setting [6]), 169%. For the same compound, in the experiment on HEK293T cells, the “percent recovery of protein translation in stressed cells” value is given as above 100%.

As to `O=C(COc1ccc(Cl)c(F)c1)NN1CCC(NC[C@H](O)COc2ccc(Cl)c(F)c2)CC1` [Compound 53, (S)-2-(4-chloro-3-fluorophenoxy)-N-(4-((3-(4-chloro-3-fluorophenoxy)-2-hydroxypropyl)amino)piperidin-1-yl)acetamide], the inhibition at 0.1 µM in the experiment on ATF4 (setting [2]) amounted to 36.1%. The half-maximal inhibitory concentration (IC50) in the experiment with ATF4 (setting [3]) came to 268 nM. Further, in the experiment with ATF4 (setting [4]), the inhibition at 1 µM was determined as 69.8%. Moreover, the activity at 1 µM in experiment [1] (setting [5]) stood at 83.7%; in experiment [1] (setting [6]) it was 46.2%.

Regarding `O=C(NN1CCC(NC[C@@H](O)COc2ccc(Cl)c(F)c2)CC1)c1cc2cc(Cl)ccc2o1` [Compound 54], in the experiment on ATF4, the inhibition at 0.1 µM was 87.2%, the inhibition at 1 µM is 97.2% and the IC50 turned out to be 1.6 nM. In experiment [1] (setting [5]), the activity at 1 µM worked out at 99.7%. The activity at 1 µM in experiment [1] (setting [6]) came to 69.9%.

Regarding `O=C(NN1CCC(NC[C@H](O)COc2ccc(Cl)c(F)c2)CC1)c1cc2cc(Cl)ccc2o1` [Compound 55, (S)-5-chloro-N-(4-((3-(4-chloro-3-fluorophenoxy)-2-hydroxypropyl)amino)piperidin-1-yl)benzofuran-2-carboxamide], in the experiment on ATF4, the inhibition at 0.1 µM came to 58.1%, the inhibition at 1 µM is 80.5% and the half-inhibitory concentration (IC50) worked out at 102 nM. In addition, the activity at 1 µM in experiment [1] (setting [5]) stood at 110%. Moreover, the activity at 1 µM in experiment [1] (setting [6]) came to 49.6%.

Consider `O=C(NN1CCC(NC[C@@H](O)COc2ccc(Cl)c(F)c2)CC1)c1ccc2cc(Cl)ccc2n1` [Compound 56, (R)-6-chloro-N-(4-((3-(4-chloro-3-fluorophenoxy)-2-hydroxypropyl)amino)piperidin-1-yl)quinoline-2-carboxamide], for which the inhibition at 0.1 µM in the experiment on ATF4 (setting [2]) came to 63.4%. For the same compound, the IC50 in the experiment with ATF4 (setting [3]) came out at 71.7 nM. Also, the inhibition at 1 µM in the experiment on ATF4 (setting [4]) is 75.6%. Further, the activity at 1 µM came out at 155% in experiment [1] (setting [5]) and 46.1% in experiment [1] (setting [6]).

For the compound `O=C(NN1CCC(NC[C@H](O)COc2ccc(Cl)c(F)c2)CC1)c1ccc2cc(Cl)ccc2n1` [Compound 57, (S)-6-chloro-N-(4-((3-(4-chloro-3-fluorophenoxy)-2-hydroxypropyl)amino)piperidin-1-yl)quinoline-2-carboxamide], in the experiment on ATF4 (setting [2]), the inhibition at 0.1 µM was determined as 25.9%. The concentration for half-maximal inhibition (IC50) with ATF4 (setting [3]) is above 10000 nM. In the experiment with ATF4 (setting [4]), the inhibition at 1 µM is 39.8%. Further, the activity at 1 µM is 139% in experiment [1] (setting [5]) and 69.6% in experiment [1] (setting [6]).

Turning to `O=C(NN1CCN(C[C@H](O)COc2ccc(Cl)c(F)c2)CC1)c1ccc2cc(Cl)ccc2n1` [Compound 59, (S)-6-chloro-N-(4-(3-(4-chloro-3-fluorophenoxy)-2-hydroxypropyl)piperazin-1-yl)quinoline-2-carboxamide], the inhibition at 0.1 µM with ATF4 (setting [2]) was 38.8%. Besides, the IC50 in the experiment with ATF4 (setting [3]) turned out to be 570 nM. Further, the inhibition at 1 µM in the experiment with ATF4 (setting [4]) is 66%. Further, the activity at 1 µM came out at 180% in experiment [1] (setting [5]) and 98.7% in experiment [1] (setting [6]).

For the compound `O=C(NN1CCN(C[C@@H](O)COc2ccc(Cl)c(F)c2)CC1)c1ccc2cc(Cl)ccc2c1` [Compound 60, (R)-6-chloro-N-(4-(3-(4-chloro-3-fluorophenoxy)-2-hydroxypropyl)piperazin-1-yl)-2-naphthamide], the inhibition at 0.1 µM with ATF4 (setting [2]) came to 92.6%. Besides, in the experiment with ATF4 (setting [3]), the IC50 came out at 1.5 nM. In the experiment with ATF4 (setting [4]), the inhibition at 1 µM is 94.6%. Moreover, the activity at 1 µM worked out at 140% in experiment [1] (setting [5]) and 126% in experiment [1] (setting [6]).

`O=C(NN1CCN(C[C@H](O)COc2ccc(Cl)c(F)c2)CC1)c1ccc2cc(Cl)ccc2c1` [Compound 61, (S)-6-chloro-N-(4-(3-(4-chloro-3-fluorophenoxy)-2-hydroxypropyl)piperazin-1-yl)-2-naphthamide]: the inhibition at 0.1 µM with ATF4 (setting [2]) was determined as 72.4%. For the same compound, the IC50 in the experiment on ATF4 (setting [3]) worked out at 29.4 nM. In the experiment with ATF4 (setting [4]), the inhibition at 1 µM came out at 86.6%. In addition, the figures for the activity at 1 µM in experiment [1] (setting [5]) and in experiment [1] (setting [6]) were 195% and 171%, respectively.

`O=C(NN1CCN(C[C@@H](O)COc2ccc(Cl)c(F)c2)CC1)c1ccc(OC(F)(F)F)cc1` [Compound 62, (R)-N-(4-(3-(4-chloro-3-fluorophenoxy)-2-hydroxypropyl)piperazin-1-yl)-4-(trifluoromethoxy)benzamide]: the inhibition at 0.1 µM in the experiment with ATF4 (setting [2]) came out at 85.9%. Moreover, the half-inhibitory concentration (IC50) in the experiment on ATF4 (setting [3]) was below 100 nM. For the same compound, the inhibition at 1 µM in the experiment on ATF4 (setting [4]) was determined as 88.8%. In addition, the activity at 1 µM amounted to 99.5% in experiment [1] (setting [5]) and 40.2% in experiment [1] (setting [6]).

Regarding `O=C(NN1CCN(C[C@@H](O)COc2ccc(Cl)c(F)c2)CC1)c1ccc(Cl)cc1` [Compound 63, (R)-4-chloro-N-(4-(3-(4-chloro-3-fluorophenoxy)-2-hydroxypropyl)piperazin-1-yl)benzamide], the inhibition at 0.1 µM with ATF4 (setting [2]) turned out to be 14.8%. The IC50 with ATF4 (setting [3]) was below 1000 nM. In addition, the inhibition at 1 µM in the experiment on ATF4 (setting [4]) was 84.6%. The values for the activity at 1 µM in experiment [1] (setting [5]) and in experiment [1] (setting [6]) were 107% and 16.4%, respectively.

On to `O=C(NN1CCN(C[C@@H](O)COc2ccc(Cl)c(F)c2)CC1)c1ccc(Cl)cn1` [Compound 64, (R)-5-chloro-N-(4-(3-(4-chloro-3-fluorophenoxy)-2-hydroxypropyl)piperazin-1-yl)picolinamide], for which the inhibition at 0.1 µM in the experiment with ATF4 (setting [2]) was found to be 20%. For the same compound, the inhibition at 1 µM with ATF4 (setting [4]) came out at 56.6%. The activity at 1 µM is 109% in experiment [1] (setting [5]) and 34.7% in experiment [1] (setting [6]).

Take `O=C(NN1CCN(C[C@@H](O)COc2ccc(Cl)c(F)c2)CC1)c1ccc(C(F)(F)F)cn1` [Compound 65, (R)-N-(4-(3-(4-chloro-3-fluorophenoxy)-2-hydroxypropyl)piperazin-1-yl)-5-(trifluoromethyl)picolinamide]: the inhibition at 0.1 µM with ATF4 (setting [2]) is 22.6%. In the experiment with ATF4 (setting [3]), the IC50 was below 1000 nM. Besides, the inhibition at 1 µM in the experiment with ATF4 (setting [4]) amounted to 80.5%. Besides, the activity at 1 µM in experiment [1] (setting [5]) was found to be 99%; in experiment [1] (setting [6]), 51.1%.

Turning to `O=C(NN1CCN(C[C@@H](O)COc2ccc(Cl)c(F)c2)CC1)c1cnc(C(F)F)cn1` [Compound 66, (R)-N-(4-(3-(4-chloro-3-fluorophenoxy)-2-hydroxypropyl)piperazin-1-yl)-5-(difluoromethyl)pyrazine-2-carboxamide], in the experiment with ATF4 (setting [2]), the inhibition at 0.1 µM is 0%. Further, the half-maximal inhibitory concentration (IC50) in the experiment on ATF4 (setting [3]) is above 1000 nM. Moreover, in the experiment on ATF4 (setting [4]), the inhibition at 1 µM was 0%. Besides, the activity at 1 µM in experiment [1] (setting [5]) came to 84.9%; in experiment [1] (setting [6]), 17.6%.

Take `N#Cc1ccc(C(=O)NN2CCN(C[C@@H](O)COc3ccc(Cl)c(F)c3)CC2)nc1` [Compound 67, (R)-N-(4-(3-(4-chloro-3-fluorophenoxy)-2-hydroxypropyl)piperazin-1-yl)-5-cyanopicolinamide]: the inhibition at 0.1 µM in the experiment with ATF4 (setting [2]) stood at 3.6%. Further, the half-maximal inhibitory concentration (IC50) in the experiment on ATF4 (setting [3]) is above 1000 nM. The inhibition at 1 µM with ATF4 (setting [4]) was found to be 27.8%. In addition, the activity at 1 µM in experiment [1] (setting [5]) worked out at 80%; in experiment [1] (setting [6]), 27.6%.

Take `O=C(NN1CCC(NC[C@@H](O)COc2ccc(Cl)c(F)c2)CC1)c1ccc(Cl)cn1` [Compound 68, (R)-5-chloro-N-(4-((3-(4-chloro-3-fluorophenoxy)-2-hydroxypropyl)amino)piperidin-1-yl)picolinamide]: the inhibition at 0.1 µM in the experiment on ATF4 (setting [2]) turned out to be 9%. In addition, in the experiment with ATF4 (setting [4]), the inhibition at 1 µM was 50.9%. The activity at 1 µM was 81.8% in experiment [1] (setting [5]) and 49.3% in experiment [1] (setting [6]).

Take `COc1ccc2oc(C(=O)NN3CCC(NC[C@@H](O)COc4ccc(Cl)c(F)c4)CC3)cc2c1` [Compound 69, (R)-N-(4-((3-(4-chloro-3-fluorophenoxy)-2-hydroxypropyl)amino)piperidin-1-yl)-5-methoxybenzofuran-2-carboxamide]: the inhibition at 0.1 µM in the experiment with ATF4 (setting [2]) turned out to be 37%. For the same compound, the 50% inhibitory concentration (IC50) in the experiment with ATF4 (setting [3]) is below 1000 nM. The inhibition at 1 µM in the experiment with ATF4 (setting [4]) worked out at 78.1%. In addition, the activity at 1 µM in experiment [1] (setting [5]) turned out to be 129%; in experiment [1] (setting [6]), 43.1%.
